Source: US20240009170A1, “INHIBITION OF GLYCOGEN SYNTHASE KINASE-3 (GSK-3)” (Brown University, priority 2020, published 2024)

Assays:
[1] = test system: GSK-3; conditions: cited from earlier work
[2] = test system: HCT-116 colorectal cancer cells; test: Co-culture of HCT-116 and NK-92 cells with or without αPD-1 therapy; format: cell-based, Human; conditions: not statistically significant
Protocol: (§1) Immune cell co-culture experiments. Co-culture experiments were conducted with GFP+ SW480 or HCT-116 colorectal cancer cells and either NK-92 natural killer cells or TALL-104 T cells in a 48-well plate, in the presence or absence of 9-ING-41. HCT-116 cells were labeled using CellTracker™ Green CMFDA (5-chloromethylfluorescein diacetate), immune cells (NK-92, TALL-104) were labeled using CellTracker™ Blue CMAC Dye (7-amino-4-chloromethylcoumarin), and ethidium homodimer-1 (EthD-1) was used as a marker of cell death (Invitrogen, Thermo Fisher Scientific, Waltham, MA, USA).

[3] = test system: HCT-116 colorectal cancer cells; test: Co-culture of HCT-116 and TALL-104 cells with or without αPD-1 therapy; format: cell-based, Human; conditions: for TALL-104-mediated tumor cell killing: αPD-1 antibody added to co-culture, compared to TALL-104 cells alone
Protocol: as §1
9-ING-41 increases tumor cell death in combination with αPD-1 therapy in a co-culture of HCT-116 colorectal cancer cells and immune cells. The inventors were interested in the applicability of GS3K-3 inhibitors such as 9-ING-41 in combination with immune checkpoint blockade. The inventors next performed co-cultures of immune cells (TALL-104, NK-92) and tumor cells (HCT-116) in the presence or absence of 9-ING-41, as well as either pembrolizumab® or nivolumab®, two humanized monoclonal antibodies against PD-1. The inventors evaluated HCT-116 cells in this co-culture model to determine if the 9-ING-41-mediated increase in immune cell-mediated SW480 cell killing could be reproduced in another colorectal cancer cell line.

For `[Li]` [Lithium], the therapeutic index [1] is given as “narrow therapeutic index”.
For “nivolumab®: humanized monoclonal antibody against PD-1”, the “benefit in combination with NK-92 compared to NK-92 alone” value [2] was “limited benefit” and the “TALL-104-mediated tumor cell killing” value [3] was “increased amount of TALL-104-mediated tumor cell killing”.
For “pembrolizumab®: humanized monoclonal antibody against PD-1”, the “benefit in combination with NK-92 compared to NK-92 alone” value [2] was “limited benefit”, the “cell death, pembrolizumab+TALL-104 compared to nivolumab+TALL-104” value [3] was “slight increase in cell death” and the “TALL-104-mediated tumor cell killing” value [3] was “increased amount of TALL-104-mediated tumor cell killing”.
